Values of other authors as cited in patent publication US20050032876A1, “Pharmaceutical compositions comprising sumatriptan and metoclopramide, and methods of use thereof” (priority 2003, published 2005).

Conditions: rapidly pre-systemically metabolized; very short half-life of the order of only about 2 hours

CNS(=O)(=O)Cc1ccc2[nH]cc(CCN(C)C)c2c1 [Sumatriptan]
half-life: about 2 hours
